{"source": "paper PMC10535741", "about": "“Styrylpyridinium Derivatives for Fluorescent Cell Imaging” (Pharmaceuticals, 2023)", "key": {"[1]": {"test_system": "BHK-21 cells", "type": "cell-based, Syrian hamster", "conditions": "BHK-21, 24 h after staining", "experimental": "SP compound 6e was selected for fluorescent cell imaging analysis. First, the compound was used to label the BHK-21 cells that are widely used in molecular biology studies. Commercially available CellTracker™ Deep Red dye (Invitrogen) was used as a control because it has a similar emission range (ex/em: 630/660). The BHK-21 cells were incubated with fluorescent dyes to stain the cells, then seeded on a 24-well plate and cultured for 24 h. SP compound 6e was used at 25 μM concentration, providing a non-toxic effect on BHK-21 cells (Table S2, entry 5, Supplementary Materials). The Deep Red dye was used according to the manufacturer’s instructions.\nThe day after staining, the cells were collected and washed several times with PBS buffer in order to evaluate the stability of the staining. The fluorescent signal was analysed by flow cytometry (Figure 3). […] However, only (61 ± 3)% of Deep Red stained cells were positive, whereas SP compound 6e ensured 99.9% positive cells. Moreover, the signal intensity (fluorescence shift from unstained cells) of cells stained with compound 6e was remarkably higher than for the Deep Red dye. The calculated stain index for SP compound 6e was (92 ± 19) before cell washing and (77 ± 15) after cell washing. However, in the case of Deep Red, the calculated stain index was (2.27 ± 0.07) before cell washing and (2.21 ± 0.07) after cell washing. High intensity usually facilitates flow cytometry data acquisition by enhancing the signal-to-background ratio and enabling optimal compensation in complex multicolour fluorescence analysis. […]\nWhen cells reached 90% confluency, they were stained with 25 μM compound 6e or 1 μM CellTracker™ Deep Red dye (Cat. No. C34565; Invitrogen) according to the manufacturer’s instructions. […] Stained cells were kept at 4 °C and analysed using a FACSAria BD Hardware flow cytometer with FACSDiva 6.1.3 software (BD Biosciences, San Jose, CA, USA). […] The data were analysed using FlowJo 10.3 software (FlowJo LLC, Ashland, OR, USA) and presented as the mean of three independent experiments. […]"}, "[2]": {"test_system": "BHK-21 cells", "assay": "Cell passaging assay, flow cytometry on day 6", "type": "cell-based, Syrian hamster", "conditions": "BHK-21, passaged twice, six days of culture; 25 μM 6e or 1 μM Deep Red", "experimental": "In order to assess the stability of staining after prolonged cell culture, the stained BHK-21 cells (Day 1) were passaged twice (Days 2 and 4) and cultured for six days in total (Day 6, Figure 4). On day 6, the cells were collected and analysed by flow cytometry. […] It can be concluded that, in contrast to the Deep Red cell tracker, SP compound 6e effectively stains cells and can be used for up to 6 days of cell culture.\nFor the cell passaging, on day 0, BHK-21 cells were plated on a 6-well plate with a seeding density of 1.5 × 10^5 cells per well. On day 1, the cells were stained with 25 μM compound 6e or 1 μM CellTracker™ Deep Red dye as described above. […] On day 6, cells were collected for flow cytometry analysis. The cells were kept at 4 °C and analysed as described above."}, "[3]": {"assay": "in vitro", "conditions": "mouse", "quoted_text": "In this study, we used murine bone-marrow-derived macrophages (BMDMs) to evaluate the staining potential of the 6e compound in primary immune cells. […] To assess toxicity, the BMDMs were stained with various concentrations (0.1–100 μM) of compound 6e, and after 24 h, cell viability was measured using the CCK-8 assay (Figure 5).\nTo determine the cytotoxicity of the SP compound 6e, the cells were stained with various concentrations of the dye (0, 0.1, 1, 5, 10, and 100 μM). Briefly, 2 × 10^4 cells were plated in a 96-well plate in 100 μL of the medium. After 24 h, the cells were washed once and a solution of compound 6e in PBS was added to the cells. The cells were incubated in a humidified 5% CO2 incubator at 37 °C for 15–20 min. Then, the dye solution was replaced with medium. […] After 24 h, the medium was replaced with 10 μL of CCK-8 reagent in 100 μL of fresh medium. The cells were incubated in a humidified 5% CO2 incubator at 37 °C for 1–4 h. The absorbance at 450 nm was measured using a microplate spectrophotometer (BioTek Instruments, Winooski, VT, USA). Cell viability was calculated as a percentage of non-treated cell absorbance. IC50 values were calculated as the concentration at which 50% of the cells were viable."}}, "data": [{"smiles": "CCCCCCCCCCCCCCCC[n+]1ccc(C=CC=Cc2cc3c4c(c2)CCCN4CCC3)cc1.[Br-]", "note": "[Compound 6e, 1-hexadecyl-4-(4-(2,3,6,7-tetrahydro-1H,5H-pyrido[3,2,1-ij]quinolin-9-yl)buta-1,3-dien-1-yl)pyridin-1-ium bromide]", "values": [{"measurement": "stain index after cell washing", "setting": "[1]; washed 3 times with PBS", "result": "77 ± 15"}, {"measurement": "positive (stained) cells", "setting": "[1]; 25 μM 6e or 1 μM Deep Red", "result": 99.9, "unit": "%"}, {"measurement": "stain index before cell washing", "setting": "[1]; 25 μM 6e or 1 μM Deep Red", "result": "92 ± 19"}, {"measurement": "positive fluorescent cells on day 6", "setting": "[2]", "result": "15.0 ± 0.7", "unit": "%"}, {"measurement": "viability at 24 h, 5 µM", "setting": "[3]", "result": "79.1 ± 1.2", "unit": "%"}]}]}
